Laboratory results published in patent US10364263B2, “Cyclic phosphates and cyclic phosphoramidates for the treatment of neurologic disorders” (Retrophin, Inc., priority 2015, dated 2019).

Tested on: PANK2 silenced human neuroblastoma IMR32 cells (PANK2−/−)
Assay: Coenzyme A assay in PANK2 silenced cells (LC-MS quantification of free CoA)
Type: cell-based
Details: compound added twice (24 h + 24 h), relative to 0.1% DMSO controls
Description: A human neuroblastoma IMR32 cell line (ATCC) with stably PANK2 silencing was obtained by lentiviral-delivered small hairpin RNA and cultured in MEM (Invitrogen) supplemented with 10% fetal bovine serum, 2 mM glutamine, 1% penicillin-streptomycin, 1 mM sodium pyruvate, 1 mM non essential amino acids and 1.5 g/l sodium bicarbonate.
For lentiviral shRNA expression, Human Emryonic Kidney HEK-293T cells (ATCC) were transfected with the appropriate pGFP-Lenti-shRNA constructs and packaging plasmids according to manufacturer's protocol (Origene Technologies, Inc.). Four different gene-specific shRNA expression vectors designed against multiple splice variants of PANK2 (Gene ID 80025) were used for transfection. A non-silencing shRNA construct (scrambled shRNA) and an empty vector expressing GFP alone were used as negative controls. The GFP tag subcloned into the lentiviral vectors was used to monitor the transfection efficiency.
IMR32 cells were plated on 150 cm dishes 48 h before transduction with lentiviral particles.
Three days after transduction medium was removed and replaced with fresh medium containing […] puromycin. Medium was replaced every 48 h. Levels of PANK2 expression on selected clones was assessed by Western Blot analysis.
To quantify CoA, PANK2^−/− IMR32 cells were plated on 12-well culture plates (Corning) at a density of 0.2×10^6 cells per well. After 72 h, compounds were freshly dissolved in DMSO and added to the culture medium to yield a final solvent concentration of 0.1% (v/v). Controls with medium containing 0.1% DMSO without test compounds were also included in each plate. Compound treated cells were incubated for 24 h at 37° C. Treatment was repeated after 24 h with newly dissolved compound and cells were further incubated at 37° C. for additional 24 h. Before LC-MS analysis of CoA levels, cells were harvested, counted, and collected in a 15 ml falcon tube and centrifuged at 200×g for 5 min at 4° C. Supernatant was removed and cell pellet was washed in 10 ml of ice-cold PBS. To further confirm that the numbers of cells in each sample were equivalent, an equal fraction of pellet was collected from each sample and subjected to protein determination analysis. After centrifugation and supernatant removal, the cell pellet was rapidly frozen in Liquid Nitrogen and stored at −80° C. until analysis.
Intracellular CoA levels were calculated considering an intracellular volume of 1 million cells=2 μl.
The 1×10^6 cellular pellet was extracted with 120 μl of aqueous 20% TFA. This solution was stirred for 2 min, sonicated in ultrasonic bath for 2 min, then stirred again for 1 min, and centrifuged for 15 min at 14000 g and at 4° C.
100 μL samples of supernatant were dried under N2 at 20° C. in the dark.
Samples were re-dissolved in 100 μl of 10 mM NH4^+ AcO^− buffer pH 5.1+IS (Dextrorphan 50 ng/ml), stirred for 2 min, sonicated in ultrasonic bath for 1 min, then stirred again for 1 min, and injected into LC-MS.
LC-MS/MS was performed using an Agilent HPLC (1100 Series, USA). The LC system was interfaced with an API-4000 Q-Trap triple quadrupole mass spectrometer (AB Sciex, Toronto, Canada) equipped with a TurbolonSpray ionization source operating in positive ion mode. Analyst™ software version 1.6 (AB Sciex, Toronto, Canada) was used for data acquisition and processing. CoA was separated using a Luna C18 column (2.0×50 mm; 5 μm particle size), column at 25° C. and flow rate of 0.2 ml/min. Injection volume was 15 μl. The mobile phases consisted of water containing 10 mM ammonium acetate pH 7 (mobile phase A) and MeCN-2-propanol 9:1 (mobile phase B). Elution was performed using a gradient starting at 2% B, holding at 2% B until 0.1 min, increasing to 98% B at 3.2 min, holding at 98% B until 4.5 min, returning to 2% B at 4.6 min and holding at 2% B until 7.5 min. Precursor ions and MRM transitions used were: CoA m/z 768.1→261.6 and 768.1→136.1. […]

| Structure (SMILES) | PANK2−/− CoA (Fold Increase): fold increase in Coenzyme A (CoA) levels relative to controls [Fold Increase] |
| --- | --- |
| CC(C)OC(=O)OCO[P@@]1(=O)OCC(C)(C)[C@H](C(=O)NCCC(=O)OC(C)(C)C)O1 [compound 105, tert-butyl 3-((2S,4R)-2-(((isopropoxycarbonyl)oxy)methoxy)-5,5-dimethyl-2-oxido-1,3,2-dioxaphosphinane-4-carboxamido)propanoate] | 4.72 |
| COC(=O)CCNC(=O)[C@@H]1O[P@](=O)(N[C@@H](C)C(=O)OC)OCC1(C)C [1-53, methyl 3-((2S,4R)-2-(((S)-1-methoxy-1-oxopropan-2-yl)amino)-5,5-dimethyl-2-oxido-1,3,2-dioxaphosphinane-4-carboxamido)propanoate] | 2.37 |
| COC(=O)CCNC(=O)[C@@H]1O[P@](=O)(Oc2ccc(C(F)(F)F)nc2)OCC1(C)C [2-198, methyl 3-((2R,4R)-5,5-dimethyl-2-oxido-2-((6-(trifluoromethyl)pyridin-3-yl)oxy)-1,3,2-dioxaphosphinane-4-carboxamido)propanoate] | 13.6 |
| COC(=O)CCNC(=O)[C@@H]1OP(=O)(OCOC(=O)c2cc(C(C)(C)C)nn2C)OCC1(C)C (stereo partly drawn) [2-144, (((4R)-4-((3-methoxy-3-oxopropyl)carbamoyl)-5,5-dimethyl-2-oxido-1,3,2-dioxaphosphinan-2-yl)oxy)methyl 3-(tert-butyl)-1-methyl-1H-pyrazole-5-carboxylate] | 77.8 |
| COC(=O)CCNC(=O)[C@@H]1OP(=O)(OCOC(=O)NCCOC(=O)C(C)(C)C)OCC1(C)C (stereo partly drawn) [2-183, 2-((((((4R)-4-((3-methoxy-3-oxopropyl)carbamoyl)-5,5-dimethyl-2-oxido-1,3,2-dioxaphosphinan-2-yl)oxy)methoxy)carbonyl)amino)ethyl pivalate] | 3.5 |
| COC(=O)CCNC(=O)[C@@H]1O[P@](=O)(OCOC(=O)c2scnc2C(C)C)OCC1(C)C [2-188, (((2R,4R)-4-((3-methoxy-3-oxopropyl)carbamoyl)-5,5-dimethyl-2-oxido-1,3,2-dioxaphosphinan-2-yl)oxy)methyl 4-isopropylthiazole-5-carboxylate] | 131.48 |
| COC(=O)CCNC(=O)[C@@H]1OP(=O)(NCCc2ccccc2)OCC1(C)C (stereo partly drawn) [compound 112, methyl 3-((4R)-5,5-dimethyl-2-oxido-2-(phenethylamino)-1,3,2-dioxaphosphinane-4-carboxamido)propanoate] | 1.42 |
| COC(=O)CCNC(=O)[C@@H]1O[P@](=O)(OCOC(=O)N[C@@H](CSC(=O)C(C)(C)C)C(=O)O)OCC1(C)C [2-201, N-(((((2R,4R)-4-((3-methoxy-3-oxopropyl)carbamoyl)-5,5-dimethyl-2-oxido-1,3,2-dioxaphosphinan-2-yl)oxy)methoxy)carbonyl)-S-pivaloyl-L-cysteine] | 0.92 |
| COC(=O)CCNC(=O)[C@@H]1OP(=O)(OCOC(=O)c2ccnn2C)OCC1(C)C (stereo partly drawn) [2-142, (((4R)-4-((3-methoxy-3-oxopropyl)carbamoyl)-5,5-dimethyl-2-oxido-1,3,2-dioxaphosphinan-2-yl)oxy)methyl 1-methyl-1H-pyrazole-5-carboxylate] | 58.1 |
| COC(=O)CCNC(=O)[C@@H]1OP(=O)(OCOC(=O)c2cc(C)nn2C)OCC1(C)C (stereo partly drawn) [2-145, (((4R)-4-((3-methoxy-3-oxopropyl)carbamoyl)-5,5-dimethyl-2-oxido-1,3,2-dioxaphosphinan-2-yl)oxy)methyl 1,3-dimethyl-1H-pyrazole-5-carboxylate] | 42.44 |
